# Data reported in a melting point compilation (Tetko et al.; mined from patent text by program, amines drawn as free bases though some values may be those of a salt).
row,SMILES,melting point
1,N#Cc1ccc(NC(=O)OCc2cccnc2)cc1,205 to 207 °C
2,O=C(O)CSC1c2ccccc2COc2ccc(OCc3ccc4ccccc4n3)cc21 (centres undefined),174 to 179 °C
3,Cc1sc(-c2ccccc2)nc1CCOc1ccc([N+](=O)[O-])cn1,131 to 132 °C
4,CCCCCCCCCc1cc(=O)c2c(O)cc(O)cc2o1,101 °C
5,Cc1cc(C#N)c(C)c(C(=O)Nc2ccn(C)n2)n1,180 °C
6,O=C(O)Cc1cc(C(=O)c2ccccc2)cc(Br)c1O,132 °C
7,OCCCNc1ccc2ncnn2n1,193 to 194 °C
8,O=[N+]([O-])c1cnccc1NCc1ccc(CO)o1,135 °C
9,CC1(C=O)CC1(c1ccc(F)cc1)c1ccc(F)cc1 (centres undefined),110 to 113 °C
10,Cc1cc(=O)n2cccc(O)c2n1,144 to 145 °C
11,O=C(O)c1ccc(OCCNC(=O)C2Cc3ccccc3N2S(=O)(=O)c2ccc(-c3ccc(F)cc3Cl)cc2)cc1 (centres undefined),90 °C
12,C=C(c1ccc2nc(N)n(S(=O)(=O)C(C)C)c2c1)c1cc(F)ccc1F,161 to 164 °C
13,CCCNC(=O)C(O)C1(O)CCC2C3CCC4=CC(=O)C=CC4(C)C3C(O)CC21C (centres undefined),251 to 253 °C
14,N#Cc1ccc(N2C(=O)CNC2=O)c2ccccc12,> 275 °C
15,CCCCC(=O)c1c(-c2ccc3c(Cl)c(OCc4nnn[nH]4)ccc3c2)oc2ccccc12,168 to 169 °C
16,Cc1cc(I)ccc1NC(=S)N(C)N,160 to 161 °C
17,CCOCCc1ccc(OCCNc2ncnc(C)c2Cl)c(C)c1,57 to 58 °C
18,CC(C)(C)OC(=O)N1CCN(c2cccc(N)c2)CC1,218 °C
19,COc1ccc(-c2nc(C(C)C)sc2-c2ccc(OC)cc2)cc1,61 to 65 °C
20,CON=CNC(=O)c1ccc(C2=NOC(c3cc(Cl)cc(Cl)c3)(C(F)(F)F)C2)cc1C(C)(C)N (centres undefined),144 to 146 °C
21,CCC1CC(=O)c2c(NC(=O)C(=O)O)ccc(C)c21 (centres undefined),176 to 177 °C
22,COc1ccc(CCN2CCC(C3c4ccn(C)c4C=Cn4ncnc43)CC2)cc1 (centres undefined),140 °C

row,SMILES,melting point
1,O=C(NCC1CCN(CC2(C(=O)O)CC2)CC1)N1C(=O)C2(CCCC2)c2ccccc21,186 °C
2,CCCCOC(=O)c1ccc(C#N)cc1,54 to 55 °C
3,C/C=C1\NC(=O)N(CCCC)C1=O,127 °C
4,O[C@@H]1CNC[C@H](c2ccc(C(F)(F)F)cc2)C1 (relative stereo),189 to 192 °C
5,COc1cc2c(cc1C(C)(C)c1ccccc1)OCO2,75 to 76 °C
6,O=C(Nc1ccc(C(=O)N2CCCc3ccccc32)cc1)c1ccccc1,202 to 204 °C
7,O=C(O)c1ccc2c(-c3ccccc3)c([N+](=O)[O-])oc2c1,244 to 247 °C
8,COc1nc2cc(F)c(Cl)c(N)c2nc1OC,199 to 200 °C
9,O=C1CC(c2ccccc2)c2cccc(CCN3CCN(c4nsc5ccccc45)CC3)c2N1 (centres undefined),227 °C
10,C#Cc1ccc2c(c1)C1(c3ccccc3-c3ccccc31)c1ccccc1-2,169 to 170 °C
11,CC(=O)OCC1OC(n2cc(C3=C(c4cn(C(=O)OC(C)(C)C)c5ccccc45)C(=O)N(C)C3=O)c3cccnc32)C(OC(C)=O)C(OC(C)=O)C1OC(C)=O (centres undefined),89 to 91 °C
12,COC12CC(C)(c3nnc(-c4cncc(Br)c4)o3)CN(C)C1Cc1cn(C)c3cccc2c13 (centres undefined),171 to 174 °C
13,Cc1cccc(C=Cc2ccccc2C#N)n1,91 to 92 °C
14,NCCOCn1cnc2c(N)ncnc21,170 to 171 °C
15,C=CCSC(=NC(=O)OC)NC(=O)Nc1ccc(C)cc1,103 to 105 °C
16,O=C(O)C1Cc2ccc(OCc3ccccc3)cc2O1 (centres undefined),118 to 119 °C
17,CCOC(=O)C=Cc1ccc(O)c(Br)c1,112 to 113 °C
18,COc1cc(N)cc2c1nc(C(F)F)n2-c1nc(N2CCOCC2)nc(N2CCN(S(C)(=O)=O)CC2)n1,280 to 283 °C
19,COC(=O)c1c(Cl)nc2cc3c(cc2c1CN1CCN(C)CC1)OCCO3,143 °C
20,Cc1c(Br)c(C#N)nn1C,92 to 94 °C
21,COc1cc(COc2nn(Cc3ccc(Oc4ccccc4)cc3)cc2C(=O)O)ccc1OCc1nc(-c2ccco2)oc1C,153 to 154 °C

# Other lines, results leading:
row,melting point,SMILES
1,180 °C,CC(C)(C)NS(=O)(=O)c1c(C(=O)O)sc2ccccc12
2,198 to 203 °C,CCS(=O)(=O)c1ccc(C2=C(c3ccc(S(C)(=O)=O)cc3)OC(C)(C)C2=O)cc1
3,217 to 219 °C,Cn1c(=O)c2[nH]c(C3CCSC3)nc2n(C)c1=O (centres undefined)
4,237 to 240 °C,Cn1nnnc1-c1cn(C)c2cc(S(C)=O)ccc2c1=O (centres undefined)
5,> 330 °C,Nc1nc2ccc(Cl)nc2c(=O)[nH]1
6,86 °C,Cc1cc(S)c(C)c(C)c1O
7,164 to 166 °C,NC(=O)C1CCc2c(C(=O)c3cccs3)cccc21 (centres undefined)
8,274 to 276 °C,C=C1SC(=O)N(c2ccc3cc(-c4ccc(OC)c(C(C)(C)C)c4)ccc3c2)C1=O
9,158 to 160 °C,NC(=O)N1CCN(c2n[nH]c3ccccc23)CC1
10,67 to 72 °C,CCCCCCCCCCCCCCCCCCOc1cn(-c2ccccc2)c(CO)cc1=O
11,74 to 75 °C,COc1ccccc1CC(O)(Cc1cccs1)C(C)(C)C (centres undefined)
12,97 to 98 °C,Cc1oc(-c2ccccc2)nc1COc1cccc(COc2cccc(CC(=O)O)c2)n1
13,138 °C,O=C(O)CCC(=O)NCc1ccccc1
14,155 to 156 °C,O=C(Nc1ccccc1)c1cc([N+](=O)[O-])ccc1Cl
15,125 to 126 °C,COc1cc(NC(=S)NCCN)cc(OC)c1
16,106 to 108 °C,CN(C)c1ccc(C=CC(=O)c2ccc3c(c2)CCC3)cc1
17,51 to 52 °C,Cc1ccc(C)c(OCCCC(C)(C)C(=O)Nc2cccc(C3=NC(C)(C)CO3)c2C)c1
18,195 °C,CC(=O)Oc1c(C(C)(C)C)cc2c(c1C(C)(C)C)C=CS2(=O)=O
19,120 to 122 °C,CCOC(=O)C(Cc1cccc2cccnc12)(NC=O)C(=O)OCC
20,95 to 96 °C,CC(=O)C(C)(O)C1(C)OC(C)=CC1=O (centres undefined)
21,173 to 175 °C,O=C(O)C1CCc2c(c3ccccc3n2C(=O)c2cccc(C(F)(F)F)c2)C1 (centres undefined)

row,melting point,SMILES
1,107 to 108 °C,c1ccc(CCc2nc3cccc4c3n2CCC4)cc1
2,215 to 217 °C,CC(C)(C)C(=O)c1c[nH]c2ncc(-n3ccnc3)nc12
3,168 to 170 °C,NC(=O)N(O)CCNC(=O)c1cccc(C(=O)c2ccccc2)c1
4,187 to 189 °C,Cc1ccc(-c2ccc3c(c2)C=C(C(=O)Nc2ccc(CN4CCCCC4)cc2)CC3)cc1
5,78 to 80 °C,COc1cc(Br)c(CCC#N)cc1OC
6,82 to 83 °C,CCCCCCCCCCCCCCCCSCC(CNS(=O)(=O)CCCI)NC(=O)OCCCC (centres undefined)
7,151 to 153 °C,CCCCCCCC(=O)Nc1ccn(C2OC(CO)C(O)C2O)c(=O)n1 (centres undefined)
8,208 to 212 °C,NC(=O)N1c2ccccc2C=C([N+](=O)[O-])c2ccccc21
9,202 to 204 °C,Fc1ccc(C(CCCN2CCN(c3n[nH]c4cc(Cl)ccc34)CC2)c2ccc(F)cc2)cc1
10,143 to 145 °C,CCCn1c(=O)cc(-n2nc(-c3c(-c4ccccc4)nn4ccccc34)ccc2=O)n(CC(=O)OC)c1=O
11,64 to 65 °C,CC(C)CCSCC[C@H](O)[C@@H](N)CC(C)C
12,165 to 167 °C,O=S1(=O)N=C(OCc2snc(Cl)c2Cl)c2ccccc21
13,141 to 142 °C,CN(C)CCn1c(=O)[nH]c2cccnc21
14,31 to 32 °C,CC1(C)NC2(CCCCC2)NC1(C)C
15,> 300 °C,Cc1ccc(C(=O)c2cccc(S(=O)(=O)O)n2)cc1
16,65 to 68 °C,CN1C[C@H](O)C[C@H]1CCOc1ccc(Cl)cc1CCc1ccccc1
17,128 to 130 °C,CS(=O)(=O)c1cnc(Cl)c(CCC(=O)c2ccc(Cl)c(Cl)c2)c1
18,149 °C,COc1ccc(N2CCOCC2)c2sc(NC(=O)N3C[C@@H]4CC[C@H]3C4)nc12
19,50 °C,NCc1cc(-c2ccccc2)no1
20,238 to 239 °C,CSc1ncc(C)c(=O)[nH]1
21,234 °C,CC(C)(CO)NS(=O)(=O)c1ccc(Cl)c(NC(=O)c2cnn3c(C(F)F)cc(-c4ccc(C(F)(F)F)cc4)nc23)c1

row,melting point,SMILES
1,51 to 52 °C,COc1ccc(-c2c3cccc(C(F)(F)F)c3nn2C2CCC2)c(OC)c1
2,116 to 118 °C,CCCOCCOc1ccc(Oc2ccc3c(c2)C=C(C(=O)O)CCS3(=O)=O)cc1OCC
3,113 to 115 °C,N[C@@H](Cc1ccccc1)C(=O)NC(=O)N(CCCl)N=O
4,178 to 180 °C,COc1nccc2c(=O)n(C)c(-c3ccc(OC4CCN(C5CCC5)CC4)cc3)nc12
5,136 °C,O=S(=O)(NCCc1ccc(OCc2nnn[nH]2)cc1)c1ccc(Cl)cc1
6,197 °C,CNC(=O)c1c(I)c(N)c(I)c(N(CCO)C(C)=O)c1I
7,214 to 215 °C,COc1ccc(C(=O)O)c2c1CCCC2
8,102 to 105 °C,CC(=O)c1ccccc1OC1SCC(O)C(O)C1O (centres undefined)
9,156 to 158 °C,COc1ccc(N2C[C@@](C)(COC(=O)c3ccc([N+](=O)[O-])cc3)OC2=O)cc1
10,109 to 112 °C,O=C(O)CCC(NC(=O)c1cccc(-c2ccccc2OC2OC(CO)C(O)C(O)C2O)c1)C(=O)O (centres undefined)
11,180 to 184 °C,Cn1nnnc1CC(=O)c1cc(F)c(Cl)cc1N
12,132 °C,COC(=O)c1nc2c(NC(=O)C(C)(C)C)cccn2c1C
13,177 to 180 °C,COc1ccc(NC(=O)C(=O)c2c3n(c4ccccc24)CCNCC3)cc1
14,100 to 102 °C,CCOC(=O)C(CC)Cc1ccc(NC(=O)Cc2ccc(-n3cccc3)cc2)cc1 (centres undefined)
15,69 to 70 °C,CS(=O)(=O)OCc1cc(-c2ccc3c(c2)CCO3)nn(Cc2ccc(Cl)cc2)c1=O
16,207 to 208 °C,FC(F)(F)c1ccc2nc(-c3csc(Nc4ncccc4Cl)n3)[nH]c2c1
17,214 °C,N#Cc1cscc1Nc1ccc(Cl)cc1[N+](=O)[O-]
18,85 to 90 °C,CCS(=O)(=O)c1ccc(-c2cnn(-c3cccc(Cl)c3)c(=O)c2C2CCCCC2)cc1
19,279 °C,Cc1ccc(C(=O)C2=C(O)C(=O)N(c3ccc(C)nn3)C2c2ccc(C(C)C)cc2)cc1 (centres undefined)
